Assays:
[1] = molecular target: T1, Orexin/Hypocretin receptor type 1 (Homo sapiens, UniProt O43613); test: Antagonist activity at human OX1R expressed in CHOK1 cells assessed as inhibition of orexin A-induced intracellular Ca2+ release preincubated for 15 mins followed by orexin A addition by Fura 2-AM dye based fluorescence assay based by Cheng-Prusoff equation analysis; format: functional, cell-based
T1 sequence (O43613 whole entry): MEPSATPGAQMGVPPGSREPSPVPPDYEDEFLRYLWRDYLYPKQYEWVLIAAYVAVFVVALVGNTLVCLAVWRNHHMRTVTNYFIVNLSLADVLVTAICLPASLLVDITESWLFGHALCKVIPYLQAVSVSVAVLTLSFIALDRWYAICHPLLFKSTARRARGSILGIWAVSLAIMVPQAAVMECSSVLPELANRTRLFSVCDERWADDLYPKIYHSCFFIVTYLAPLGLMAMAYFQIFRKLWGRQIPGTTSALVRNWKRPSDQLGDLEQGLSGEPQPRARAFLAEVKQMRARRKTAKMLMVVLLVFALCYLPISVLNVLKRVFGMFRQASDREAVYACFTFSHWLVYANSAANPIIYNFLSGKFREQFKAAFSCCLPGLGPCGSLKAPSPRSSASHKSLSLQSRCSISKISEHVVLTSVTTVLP

[2] = molecular target: T2, Orexin/Hypocretin receptor type 1 (Homo sapiens) (UniProt O43613); test: Antagonist activity at human OX1R expressed in CHOK1 cells assessed as inhibition of orexin A-induced intracellular Ca2+ release at 10 uM preincubated for 15 mins followed by orexin A addition by Fura 2-AM dye based fluorescence assay […]; format: functional, cell-based
T2 sequence (whole entry): T1 sequence (O43613 whole entry)

SMILES | Ki [1] [nM] | inhibition [2] [%]
COc1ccc2c3c1O[C@H]1[C@H](N(C)C(=O)/C=C/c4ccoc4)CC[C@](O)([C@@H]31)[C@H](N(CC1CC1)S(=O)(=O)c1ccccc1)C2 | 101 | 
COc1ccc2c(c1)[C@H]1C[C@H](N(C)C(=O)/C=C/c3ccoc3)CC[C@@]1(O)[C@H](N(CC1CC1)S(=O)(=O)c1ccccc1)C2 | 842 | 
COc1ccc2c3c1O[C@H]1[C@@H](N(C)C(=O)/C=C/c4ccoc4)CC[C@](O)([C@@H]31)[C@H](N(CC1CC1)S(=O)(=O)c1ccccc1)C2 |  | 11
COc1ccc2c3c1O[C@@H]1[C@H]3[C@@H](CC[C@H]1N(C)C(=O)/C=C/c1ccoc1)[C@H](N(CC1CC1)S(=O)(=O)c1ccccc1)C2 | 20.9 | 

— ChEMBL document CHEMBL4385659, “Essential structure of orexin 1 receptor antagonist YNT-707, Part IV: The role of D-ring in 4,5-epoxymorphinan on the orexin 1 receptor antagonistic activity” (Bioorg Med Chem Lett, 2019)
